The text below walks through data of US20240101531A1, “PYRIDINAMINE DERIVATIVES AND THEIR USE AS POTASSIUM CHANNEL MODULATORS” (Xenon Pharmaceuticals Inc., priority 2022, published 2024).

For the assay, the target named is human KV7.2/KV7.3 (Homo sapiens (Human), UniProt O43525+O43526). Kind of assay: Potassium flux assay (IPG-2 AM dye). The format is cell-based. The note with it: TREX HEK 293 or HEK 293 cells expressing human KV7.2/KV7.3; arithmetic mean values. An outline of the steps: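 HEK 293 or TREX HEK 293 cells stably expressing human KV7.2/KV7.3 (tetracycline-induced where needed), loaded with IPG-2 AM, then compound for 20 min at room temperature. Flux triggered by K challenge buffer (10 mM KCl, pH 7.4), read at 530/558 nm; EC50 from 16-point 2-fold series from 30 μM, normalised to DMSO and reference modulator.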

Where only a bound is given, the exact number is not on record here.

In general, EC50 refers to the midpoint of the concentration-response curve. As for `Cn1cc(COc2cnc3c(Nc4ccc(Cl)nc4)nccc3c2)cn1` [Example 252, N-(6-chloropyridin-3-yl)-3-((1-methyl-1H-pyrazol-4-yl)methoxy)-1,7-naphthyridin-8-amine], the EC50 is less than 1000 nM.
The value for `Cn1cc(COc2cnc3c(Nc4cnc(Cl)nc4)nccc3c2)cn1` [Example 253, N-(2-chloropyrimidin-5-yl)-3-((1-methyl-1H-pyrazol-4-yl)methoxy)-1,7-naphthyridin-8-amine] was less than 1000 nM.
Regarding `N#CC1(COc2cnc3c(Nc4cnc(Cl)nc4)nccc3c2)CC1` [Example 254, 1-(((8-((2-chloropyrimidin-5-yl)amino)-1,7-naphthyridin-3-yl)oxy)methyl)cyclopropane-1-carbonitrile], the EC50 is less than 1000 nM.
The value for `Clc1ccc(Nc2nccc3cc(OCC4CC4)cnc23)cn1` [Example 255, N-(6-chloropyridin-3-yl)-3-(cyclopropylmethoxy)-1,7-naphthyridin-8-amine] was 1000 to 10000 nM; that for `Cc1ccc(Nc2nccc3cc(OCC4CC4)cnc23)cn1` [Example 256, 3-(cyclopropylmethoxy)-N-(6-methylpyridin-3-yl)-1,7-naphthyridin-8-amine] was 1000 to 10000 nM; that for `Cc1ncc(Nc2nccc3cc(OCC4CC4)cnc23)cn1` [Example 257, 3-(cyclopropylmethoxy)-N-(2-methylpyrimidin-5-yl)-1,7-naphthyridin-8-amine] was 1000 to 10000 nM.
Next, `Cc1ncc(Nc2nccc3cc(OCc4cnn(C)c4)cnc23)cn1` [Example 258, 3-((1-methyl-1H-pyrazol-4-yl)methoxy)-N-(2-methylpyrimidin-5-yl)-1,7-naphthyridin-8-amine]: 1000 to 10000 nM.
On to `CC1(COc2cnc3c(Nc4ccc(Cl)nc4)nccc3c2)COC1` [Example 259, N-(6-chloropyridin-3-yl)-3-((3-methyloxetan-3-yl)methoxy)-1,7-naphthyridin-8-amine], for which the EC50 fell in the range of 1000 to 10000 nM.
`Clc1ccc(Nc2nccc3cc(OCCCc4cn[nH]c4)ccc23)cn1` [Example 260, 6-(3-(1H-pyrazol-4-yl)propoxy)-N-(6-chloropyridin-3-yl)isoquinolin-1-amine]: the EC50 was less than 1000 nM.
As to `O=S1(=O)CC[C@@H](Oc2ccc3c(Nc4ccc(Cl)nc4)nccc3c2)C1` [Example 261, (R)-3-((1-((6-chloropyridin-3-yl)amino)isoquinolin-6-yl)oxy)tetrahydrothiophene 1,1-dioxide], the EC50 is 1000 to 10000 nM.
For the molecule `O=S1(=O)CC[C@H](Oc2ccc3c(Nc4ccc(Cl)nc4)nccc3c2)C1` [Example 262, (S)-3-((1-((6-chloropyridin-3-yl)amino)isoquinolin-6-yl)oxy)tetrahydrothiophene 1,1-dioxide], the EC50 fell in the range of 1000 to 10000 nM.
The value for `Clc1ccc(Nc2nccc3cc(OC4CCOC4)ccc23)cn1` (stereo not shown) [Example 263, N-(6-chloropyridin-3-yl)-6-((tetrahydrofuran-3-yl)oxy)isoquinolin-1-amine] was less than 1000 nM; that for `C[C@]1(O)CC[C@H](Oc2ccc3c(Nc4ccc(Cl)nc4)nccc3c2)CC1` [Example 264, trans-4-((1-((6-chloropyridin-3-yl)amino)isoquinolin-6-yl)oxy)-1-methylcyclohexan-1-ol] was 1000 to 10000 nM; that for `C[C@]1(O)CC[C@@H](Oc2ccc3c(Nc4ccc(Cl)nc4)nccc3c2)CC1` [Example 265, cis-4-((1-((6-chloropyridin-3-yl)amino)isoquinolin-6-yl)oxy)-1-methylcyclohexan-1-ol] was less than 1000 nM.
On to `Clc1ccc(Nc2nccc3cc(Oc4cccnc4)ccc23)cn1` [Example 266, N-(6-chloropyridin-3-yl)-6-(pyridin-3-yloxy)isoquinolin-1-amine], for which the EC50 lay in the range of 1000 to 10000 nM.
Regarding `Clc1ccc(Nc2nccc3cc(Oc4cn[nH]c4)ccc23)cn1` [Example 267, 6-((1H-pyrazol-4-yl)oxy)-N-(6-chloropyridin-3-yl)isoquinolin-1-amine], the EC50 was in the range of 1000 to 10000 nM.
The value for `CS(=O)(=Nc1ccc2c(Nc3ccc(Cl)nc3)nccc2c1)C1CC1` (stereo not shown) [Example 268, ((1-((6-chloropyridin-3-yl)amino)isoquinolin-6-yl)imino)(cyclopropyl)(methyl)-λ^6-sulfanone] was less than 1000 nM; that for `CS(=O)(CC1CC1)=Nc1ccc2c(Nc3ccc(Cl)nc3)nccc2c1` (stereo not shown) [Example 269, ((1-((6-chloropyridin-3-yl)amino)isoquinolin-6-yl)imino)(cyclopropylmethyl)(methyl)-λ^6-sulfanone] was 1000 to 10000 nM.
The value for `CS(=O)(=Nc1ccc2c(Nc3ccc(Cl)nc3)nccc2c1)C1CCOCC1` (stereo not shown) [Example 270, ((1-((6-chloropyridin-3-yl)amino)isoquinolin-6-yl)imino)(methyl)(tetrahydro-2H-pyran-4-yl)-λ^6-sulfanone] was 1000 to 10000 nM; that for `COCCS(=O)(=Nc1ccc2c(Nc3ccc(Cl)nc3)nccc2c1)C1CC1` (stereo not shown) [Example 271, ((1-((6-chloropyridin-3-yl)amino)isoquinolin-6-yl)imino)(cyclopropyl)(2-methoxyethyl)-λ^6-sulfanone] was 1000 to 10000 nM.
Take `CS(=O)(CC1COC1)=Nc1ccc2c(Nc3ccc(Cl)nc3)nccc2c1` (stereo not shown) [Example 272, ((1-((6-chloropyridin-3-yl)amino)isoquinolin-6-yl)imino)(methyl)(oxetan-3-ylmethyl)-λ^6-sulfanone]: the concentration giving a half-maximal response (EC50) was 1000 to 10000 nM.
Next, `CS(=O)(=Nc1ccc2c(Nc3ccc(Cl)nc3)nccc2c1)C1COC1` (stereo not shown) [Example 275, ((1-((6-chloropyridin-3-yl)amino)isoquinolin-6-yl)imino)(methyl)(oxetan-3-yl)-λ^6-sulfanone]: 1000 to 10000 nM; `Cc1ncc(Nc2nccc3cc(N=S(C)(=O)C4CC4)ccc23)cn1` (stereo not shown) [Example 278, cyclopropyl(methyl)((1-((2-methylpyrimidin-5-yl)amino)isoquinolin-6-yl)imino)-λ^6-sulfanone]: 1000 to 10000 nM; `FC(F)n1cc(COc2ccc3c(Nc4ccc(Cl)nc4)nccc3c2)cn1` [Example 279, N-(6-chloropyridin-3-yl)-6-((1-(difluoromethyl)-1H-pyrazol-4-yl)methoxy)isoquinolin-1-amine]: less than 1000 nM.
Next, `Clc1ccc(Nc2nccc3cc(OC[C@H]4CCCN4Cc4ccccc4)ccc23)cn1` [Example 280, (R)-6-((1-benzylpyrrolidin-2-yl)methoxy)-N-(6-chloropyridin-3-yl)isoquinolin-1-amine]: 1000 to 10000 nM; `Clc1ccc(Nc2nccc3cc(OCc4cnn5c4CCC5)ccc23)cn1` [Example 281, N-(6-chloropyridin-3-yl)-6-((5,6-dihydro-4H-pyrrolo[1,2-b]pyrazol-3-yl)methoxy)isoquinolin-1-amine]: 10000 to 30000 nM; `Clc1ccc(Nc2nccc3cc(OC4CCN(Cc5ccccc5)C4)ccc23)cn1` (stereo not shown) [Example 282, 6-((1-benzylpyrrolidin-3-yl)oxy)-N-(6-chloropyridin-3-yl)isoquinolin-1-amine]: 1000 to 10000 nM.
Next, `Clc1ccc(Nc2nccc3cc(OC[C@@H]4CCN(Cc5ccccc5)C4)ccc23)cn1` [Example 283, (R)-6-((1-benzylpyrrolidin-3-yl)methoxy)-N-(6-chloropyridin-3-yl)isoquinolin-1-amine]: 1000 to 10000 nM.
